Columns and labels:
[1] = molecular target: Acetylcholinesterase (Electrophorus electricus) (UniProt O42275); details: at 2 mg/mL
Description: Inhibition of electric eel AChE at 2 mg/ml by Ellman's method

[2] = molecular target: Cholinesterase (Equus caballus) (UniProt P81908); details: at 2 mg/mL
Cholinesterase (Equus caballus), sequence (P81908 whole entry): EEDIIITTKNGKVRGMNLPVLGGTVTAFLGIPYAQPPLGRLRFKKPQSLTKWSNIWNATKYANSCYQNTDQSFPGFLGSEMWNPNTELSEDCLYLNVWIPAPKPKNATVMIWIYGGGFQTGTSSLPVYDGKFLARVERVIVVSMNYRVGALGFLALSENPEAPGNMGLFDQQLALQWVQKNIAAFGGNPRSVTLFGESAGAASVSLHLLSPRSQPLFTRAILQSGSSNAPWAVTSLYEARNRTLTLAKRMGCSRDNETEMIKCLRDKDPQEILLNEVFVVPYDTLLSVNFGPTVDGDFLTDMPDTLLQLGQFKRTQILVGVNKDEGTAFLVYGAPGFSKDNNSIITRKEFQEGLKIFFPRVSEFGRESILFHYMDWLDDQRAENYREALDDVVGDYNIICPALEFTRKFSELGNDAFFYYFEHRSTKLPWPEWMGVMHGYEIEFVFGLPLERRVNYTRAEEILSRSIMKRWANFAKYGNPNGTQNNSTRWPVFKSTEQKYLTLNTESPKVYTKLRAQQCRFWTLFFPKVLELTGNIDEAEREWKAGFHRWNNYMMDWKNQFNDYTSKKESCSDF
Description: Inhibition of horse BChE at 2 mg/ml by Ellman's method

Acetylcholinesterase (Electrophorus electricus), sequence (O42275 24-633 limits assumed): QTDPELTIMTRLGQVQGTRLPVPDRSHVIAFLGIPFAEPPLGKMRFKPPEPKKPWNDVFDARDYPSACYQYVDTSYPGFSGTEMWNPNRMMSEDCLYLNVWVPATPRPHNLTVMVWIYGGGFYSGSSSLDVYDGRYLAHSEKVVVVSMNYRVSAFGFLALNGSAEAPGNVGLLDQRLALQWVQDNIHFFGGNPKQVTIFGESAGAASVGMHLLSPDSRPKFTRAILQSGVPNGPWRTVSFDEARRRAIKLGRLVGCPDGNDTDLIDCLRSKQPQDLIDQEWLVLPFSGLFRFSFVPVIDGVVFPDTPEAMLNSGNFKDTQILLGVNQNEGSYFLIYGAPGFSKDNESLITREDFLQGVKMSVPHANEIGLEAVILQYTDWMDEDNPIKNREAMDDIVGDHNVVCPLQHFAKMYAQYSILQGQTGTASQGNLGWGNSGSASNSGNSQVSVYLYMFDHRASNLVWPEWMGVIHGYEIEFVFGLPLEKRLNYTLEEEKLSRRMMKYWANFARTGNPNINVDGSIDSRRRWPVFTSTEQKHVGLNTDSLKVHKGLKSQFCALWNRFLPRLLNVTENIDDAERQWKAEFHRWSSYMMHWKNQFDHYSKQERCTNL

| Structure (SMILES) | inhibition [1] | inhibition [2] |
| --- | --- | --- |
| C=C[C@H]1CN2CC[C@H]1C[C@H]2[C@H](O)c1ccnc2ccc(OC)cc12 | 15.8% | 24.7% |
| CC1=CC(=O)C2=C(C)C[C@H](O)[C@@H]3[C@H](OC(=O)[C@H]3C)[C@@H]12 | 29.5% | 2.68% |
| O=C1C[C@@H](c2ccc(O)c(O)c2)Oc2cc(O)cc(O)c21 | 20.2% | -0.11% |
| CN1C(=O)C[C@H](C(=O)O)[C@H]1c1cccnc1 (relative stereo) | -2.93% | -4.39% |
| CC(=O)N[C@H]1[C@@H](O[C@@H]2O[C@H](C[C@@H](O)[C@@H]3O[C@H](n4ccc(=O)[nH]c4=O)[C@@H](O)[C@H]3O)[C@H](O)[C@H](O)[C@H]2NC(=O)/C=C/CCCCCCCCCCC(C)C)O[C@H](CO)[C@@H](O)[C@@H]1O | 14.2% | 1.57% |
| CCN1C[C@]2(COC)CC[C@H](OC)[C@]34C5C[C@@H]6[C@@H](OC)C[C@@]7(OCO[C@@]7(C13)[C@@H](O)C24)C5[C@H]6OC (stereo partly specified) | 23.4% | -6.6% |
| O=c1cc(-c2ccccc2)oc2cc(O)c(O)c(O)c12 | -3.74% | 15% |
| CO[C@@H]1[C@H](OC(=O)/C=C/C=C/C=C/C=C/C(=O)O)CC[C@]2(CO2)[C@H]1[C@@]1(C)O[C@@H]1CC=C(C)C | -8.57% | -3.3% |
| COC1=CC(=O)O[C@@H](/C=C/c2ccc3c(c2)OCO3)C1 | -4.34% | 0.15% |
| CO[C@H]1[C@H](O)[C@H](O[C@H]2CC[C@@]3(C=O)[C@H](CC[C@@H]4[C@@H]3CC[C@]3(C)[C@@H](C5=CC(=O)OC5)CC[C@]43O)C2)O[C@@H](C)[C@@H]1O | 4.45% | -1.96% |
| c1ccc2c(c1)[nH]c1cnccc12 | -1.66% | 28.7% |
| COc1cc(C(=O)OC2CC3CCC(C2)N3C)ccc1O (stereo unspecified) | 31.5% | 6.73% |
| CC(=O)O[C@H]1C(=O)[C@@]2(C)[C@H]([C@H](OC(=O)c3ccccc3)[C@]3(O)C[C@H](O)C(C)=C1C3(C)C)[C@]1(OC(C)=O)CO[C@@H]1C[C@@H]2O | 27.8% | 5.3% |
| C=C1C[C@]23C[C@@]1(O)CC[C@H]2[C@@]12C=C[C@H](O)[C@@](C)(C(=O)O1)[C@H]2[C@@H]3C(=O)O | -1.11% | -5.65% |
| COc1cc2c(c(OC)c1OC)-c1c(cc3c(c1OC)OCO3)C[C@H](C)[C@H](C)C2 | -4.27% | 12.7% |
| C[C@H]1CC[C@@]2(OC1)O[C@H]1C[C@H]3[C@@H]4CC[C@@H]5C[C@@H](O)CC[C@]5(C)[C@H]4CC[C@]3(C)[C@H]1[C@@H]2C | -3.09% | -2.96% |
| CC(C)[C@@H]1NC(=O)[C@H](C)OC(=O)[C@@H](C(C)C)NC(=O)[C@@H](C(C)C)OC(=O)[C@H](C(C)C)NC(=O)[C@H](C)OC(=O)[C@@H](C(C)C)NC(=O)[C@@H](C(C)C)OC(=O)[C@H](C(C)C)NC(=O)[C@H](C)OC(=O)[C@@H](C(C)C)NC(=O)[C@@H](C(C)C)OC1=O | 16.6% | -1.5% |
| CCN1C[C@]2(OC(=O)c3ccccc3NC(C)=O)CC[C@H](OC)[C@@]34[C@@H]2C[C@@H]([C@@H]13)[C@@]1(O)C[C@H](OC)[C@H]2C[C@@H]4[C@]1(O)[C@H]2OC | 1.48% | -7.41% |
| CCCCCCCCCCC1=C(C)C(=O)C(OC)=C(OC)C1=O | 21.8% | 0.01% |
| COc1c2c(nc3ccccc13)OC(C(C)(O)CO)C2 (stereo unspecified) | 22.5% | -2.71% |
| CC(C)=CCCC1=CC(=O)c2c(O)ccc(O)c2C1=O | 1.52% | -2.66% |
| CC1=C[C@]23C(=O)[C@@H](C=C(COC(=O)c4ccccc4)[C@@H](O)[C@]2(O)[C@H]1OC(=O)c1ccccc1)[C@H]1[C@@H](C[C@H]3C)C1(C)C | -0.16% | 1% |
| C[C@H]1C(=O)O[C@@H]2CCN3CC=C(COC(=O)[C@](C)(O)[C@]1(C)O)[C@H]23 | 19.5% | 4.32% |

| Structure (SMILES) | inhibition [1] | inhibition [2] |
| --- | --- | --- |
| C1CCN2C[C@@H]3C[C@@H](CN4CCCC[C@@H]34)[C@H]2C1 | 4.72% | 5.31% |
| C[C@@]12CCc3occc3[C@H]1CC[C@]13CC(=O)[C@H](CC[C@H]12)C3 | -5.73% | -0.09% |
| C[N+]1(C)CCC[C@H]1C(=O)[O-] | -9.74% | -3.98% |
| COc1ccc(C[C@H]2NC[C@H](O)[C@H]2OC(C)=O)cc1 | -1.2% | -3.31% |
| CC1(C)CC[C@]2(C(=O)O)CC[C@]3(C)C(=CC[C@@H]4[C@@]5(C)CC[C@H](O)C(C)(C)[C@@H]5CC[C@]43C)[C@@H]2C1 | 10.2% | 0.92% |
| COc1cc([C@@H]2c3cc4c(cc3[C@H](O)[C@H]3COC(=O)[C@H]23)OCO4)cc(OC)c1OC | 8.74% | -9.54% |
| CCN1C[C@]2(C)CC[C@H](OC)[C@@]34C1[C@]1(OCO[C@@]15C[C@H](OC)[C@H]1C[C@]3(O)[C@@H]5[C@H]1OC)[C@@H](OC(C)=O)[C@H]24 | 29.5% | 0.02% |
| COc1ccc(-c2cc(=O)c3c(O)cc(O)cc3o2)cc1 | -1.38% | -2.17% |
| COc1cc(/C=C/C(=O)c2ccc(O)cc2O)ccc1O | 26.5% | -0.11% |
| C[C@@H]1O[C@@H](OC[C@H]2O[C@@H](Oc3cc(O)c4c(c3)O[C@H](c3ccc(O)cc3)CC4=O)[C@H](O)[C@@H](O)[C@@H]2O)[C@H](O)[C@H](O)[C@H]1O | 22.1% | -0.5% |
| Cc1c2ccncc2c(C)c2c1[nH]c1ccccc12 | -1.87% | 44.1% |
| Cc1nccc2c1[nH]c1ccccc12 | 22.2% | 39.4% |
| COc1ccc(/C=C/c2cc(O)cc(O[C@@H]3O[C@H](CO)[C@@H](O)[C@H](O)[C@H]3O)c2)cc1O | -3.62% | -4.38% |
| CN1CCc2cc(O)c(O)cc2C1Cc1cc(O)c(O)cc1Br (racemic) | 27.2% | 13.4% |
| O=c1oc2c(O)c(O)cc3c(=O)oc4c(O)c(O)cc1c4c23 | -6.13% | 4.4% |
| Cn1cnc2c1c(=O)[nH]c(=O)n2C | 39.4% | 3.88% |
| CC(C)(S)[C@H](N)C(=O)O | 11.7% | -6.36% |
| CN1CCC[C@H]1c1cccnc1 | 15.6% | 1.2% |
| COc1ccc2ccc(=O)oc2c1CC=C(C)C | 3.31% | -0.19% |
| O=C1c2cccc(O)c2C(=O)c2c(O)cc(CO)cc21 | 14.6% | -0.88% |
| CC[C@@H](C(=O)[C@@H](C)[C@@H](O)[C@H](C)CCc1ccc(C)c(O)c1C(=O)O)[C@H]1O[C@](CC)([C@H]2CC[C@](O)(CC)[C@H](C)O2)C[C@@H]1C | -1.88% | 10.5% |
| C[C@H]1CCCC(=O)CCC/C=C/c2cc(O)cc(O)c2C(=O)O1 | 1.81% | -1.04% |
| COc1ccc(/C=C/C(=O)c2c(O)cc(OC)cc2OC)cc1 | -6.03% | -9.95% |

| Structure (SMILES) | inhibition [1] | inhibition [2] |
| --- | --- | --- |
| COc1ccc2c(OC)c3ccoc3nc2c1OC | 39.3% | 6.79% |
| C=C1[C@@H](C)[C@H]2[C@H](Cc3ccccc3)NC(=O)[C@]23[C@H](OC(C)=O)/C=C/[C@@](C)(O)C(=O)[C@@H](C)C/C=C/[C@H]3[C@@H]1O | -2.15% | 3.92% |
| COc1ccc([C@@H]2CC(=O)c3c(O)cc(O)cc3O2)cc1O | -4.02% | -8.75% |
| N[C@@H](Cn1oc(=O)[nH]c1=O)C(=O)O | 23.1% | 2.65% |
| O=C1/C(=C/c2ccc(O)c(O)c2)Oc2cc(O)ccc21 | 24.4% | -2.22% |
| COC(=O)[C@H]1[C@H]2C[C@H]3c4[nH]c5ccccc5c4CCN3C[C@@H]2CC[C@@H]1O | 15.8% | 6.02% |
| Cc1nccc2c1[nH]c1cc(O)ccc12 | 46.1% | 35.9% |
| Oc1cc(O)c2c(c1)O[C@H](c1ccc(O)c(O)c1)[C@@H](O)C2 | 7.03% | -5.96% |
| C[C@H]1CC[C@@H]2[C@@H](C)[C@H]3[C@H](C[C@H]4[C@@H]5CC[C@H]6C[C@@H](O)CC[C@]6(C)[C@H]5CC[C@]34C)N2C1 | 5.43% | 41.9% |
| CC(C)[C@H]1C(=O)O[C@@H]2CCN3CC=C(COC(=O)[C@](C)(O)[C@]1(C)O)[C@H]23 | 24.2% | 3.04% |
| CCN1C[C@]2(COC)CC[C@H](O)[C@@]34C5C[C@@H]6[C@@H](OC)C[C@](O)(C(CC23)C14)C5[C@H]6OC(C)=O (stereo partly specified) | 28.9% | -0.23% |
| O=c1c(-c2ccc(O)cc2)coc2cc(O[C@@H]3O[C@H](CO)[C@@H](O)[C@H](O)[C@H]3O)cc(O)c12 | 24.6% | 1.82% |
| COc1c2ccoc2cc2oc(=O)ccc12 | 21.3% | 10.3% |
| N[C@H](C(=O)O)[C@@H]1CC(Cl)=NO1 | 2.09% | 8.62% |
| CN1[C@H]2CC(=O)C[C@@H]1C(O)C2 (stereo partly specified) | -7.3% | -3.92% |
| CO[C@@H]1[C@H](O)C[C@@H](O[C@@H]2C[C@H](Oc3cc4cc5c(c(O)c4c(O)c3C)C(=O)[C@@H](O[C@H]3C[C@@H](O[C@H]4C[C@@H](O[C@H]6C[C@](C)(O)[C@@H](OC(C)=O)[C@H](C)O6)[C@H](O)[C@@H](C)O4)[C@H](O)[C@@H](C)O3)[C@H]([C@H](OC)C(=O)[C@@H](O)[C@@H](C)O)C5)O[C@H](C)[C@@H]2OC(C)=O)O[C@@H]1C | 5.47% | 3.95% |
| COc1c(C)c2c(c(O)c1C/C=C(\C)CCC(=O)O)C(=O)OC2 | -6.25% | -7.04% |
| N[C@H]1CONC1=O | 1.18% | -5.13% |
| CN1C(=O)CC[C@H]1c1cccnc1 | 28.6% | -0.23% |
| Cc1cc(O)c2c(c1)C(=O)c1cc(O)cc(O)c1C2=O | 24.3% | 1.03% |
| C=C[C@H]1CN2CC[C@H]1C[C@H]2[C@H](O)c1ccnc2ccccc12 | 3.63% | -0.03% |
| COc1cc2c(cc1OC)[C@@]13CC[N+]4([O-])CC5=CCO[C@H]6CC(=O)N2[C@H]1[C@H]6[C@H]5C[C@@H]34 (stereo partly specified) | 12.8% | -6.05% |
